This assay concerns KCNQ channel protein. In words: 1D 13C half filtered 1H-1H NMR NOE fragment screening. It counts as binding, rat. As to conditions: example of FIG. 3; mono- or di-methylated fragment A of DMP543; KCNQ protein solution. An excerpt:
The above-described NMR fragment assembly methods may be utilized to identify ligands for the KCNQ potassium channel, which can be affinity-purified from rat brain extracts using an affinity column with ligands such as DMP543, XE991 or linopirdine, covalently attached to a resin. The KCNQ channel is a membrane-bound protein and is considered large for NMR studies. […] Indeed, such methods have been recently applied to G-protein coupled receptors by using difference spectra in order to remove potential spectral artifacts from NMR experiments from chemical fragments that penetrate the lipid layer (Assadi-Porter et al, 2008). An important variation to that procedure (and inter-ligand NOE studies, as in FIG. 1), which is employed as part of the presently disclosed methods is to chemically place a ^13C labeled methyl group as an NMR reported group (the “NMR probe”), analogous to the antenna in FIG. 1. […] These experiments can be done on a 400 MHz, 500 MHz, 600 MHz or higher field NMR spectrometer, ideally equipped with a cryoprobe (and cryocooled ^13C preamp). […]
As a control in these experiments, the measured NOE or saturation transfer signal might be of the sample (perhaps a tissue extract) that has had the protein target removed (KCNQ in this case), which could be done using an affinity column. […]

For the molecule `Cc1ccnc(F)c1` [2-fluoro-4-methylpyridine], the “NOE signal between 13CH3 group of fragment A and methyl group of fragment B (binding within 5 angstroms)” value is reported as “can show an NOE signal”.

(Values after US20100305326A1, “Chemical Fragment Screening and Assembly Utilizing Common Chemistry for NMR Probe Introduction and Fragment Linkage” (Marquette University, priority 2009, published 2010).)
